# Test results published in patent US11116760B2 (Gilead Sciences, Inc., priority 2018, dated 2021).
# Molecular target: α4β7 integrin (Homo sapiens (Human), UniProt P13612+P26010)
# Assay: α4β7 Integrin Cell Capture Assay
# Format: cell-based
# [1] = Table 1, capture of α4β7 expressing RPM18866 cells on MadCAM-1 extracellular domain-coated plate
# [2] = RPMI8866 cells captured on MadCAM-1 extracellular domain-coated plate
# [3] = Table 2, capture of α4β7 expressing RPM18866 cells on MadCAM-1 extracellular domain-coated plate
# α4β7 integrin, sequence (P13612 34-1032): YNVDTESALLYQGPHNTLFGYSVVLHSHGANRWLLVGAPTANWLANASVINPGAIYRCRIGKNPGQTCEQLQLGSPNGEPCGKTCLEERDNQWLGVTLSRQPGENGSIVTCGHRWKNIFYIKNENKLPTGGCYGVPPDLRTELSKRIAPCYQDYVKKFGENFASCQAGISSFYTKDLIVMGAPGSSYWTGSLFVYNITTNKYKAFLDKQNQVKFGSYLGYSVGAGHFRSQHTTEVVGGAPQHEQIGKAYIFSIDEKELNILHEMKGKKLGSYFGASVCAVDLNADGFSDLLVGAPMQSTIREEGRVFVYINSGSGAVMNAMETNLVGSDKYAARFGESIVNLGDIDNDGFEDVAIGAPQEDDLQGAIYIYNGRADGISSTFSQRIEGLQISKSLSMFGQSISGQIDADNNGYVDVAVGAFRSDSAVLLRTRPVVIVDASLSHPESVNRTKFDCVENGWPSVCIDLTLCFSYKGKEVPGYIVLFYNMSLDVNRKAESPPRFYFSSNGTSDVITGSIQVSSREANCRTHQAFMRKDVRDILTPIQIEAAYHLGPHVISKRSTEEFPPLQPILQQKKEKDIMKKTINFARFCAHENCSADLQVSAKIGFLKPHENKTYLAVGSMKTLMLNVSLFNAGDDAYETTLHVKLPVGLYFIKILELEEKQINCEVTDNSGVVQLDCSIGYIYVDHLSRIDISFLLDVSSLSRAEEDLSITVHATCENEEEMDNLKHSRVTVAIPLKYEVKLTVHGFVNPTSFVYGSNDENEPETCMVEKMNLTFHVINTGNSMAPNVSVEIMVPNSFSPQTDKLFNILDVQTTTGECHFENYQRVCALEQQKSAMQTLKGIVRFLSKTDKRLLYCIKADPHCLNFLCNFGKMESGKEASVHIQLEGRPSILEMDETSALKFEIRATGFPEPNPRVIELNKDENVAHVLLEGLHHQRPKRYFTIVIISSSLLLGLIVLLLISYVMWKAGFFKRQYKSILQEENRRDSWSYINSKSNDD
# α4β7 integrin, sequence (P26010 20-798): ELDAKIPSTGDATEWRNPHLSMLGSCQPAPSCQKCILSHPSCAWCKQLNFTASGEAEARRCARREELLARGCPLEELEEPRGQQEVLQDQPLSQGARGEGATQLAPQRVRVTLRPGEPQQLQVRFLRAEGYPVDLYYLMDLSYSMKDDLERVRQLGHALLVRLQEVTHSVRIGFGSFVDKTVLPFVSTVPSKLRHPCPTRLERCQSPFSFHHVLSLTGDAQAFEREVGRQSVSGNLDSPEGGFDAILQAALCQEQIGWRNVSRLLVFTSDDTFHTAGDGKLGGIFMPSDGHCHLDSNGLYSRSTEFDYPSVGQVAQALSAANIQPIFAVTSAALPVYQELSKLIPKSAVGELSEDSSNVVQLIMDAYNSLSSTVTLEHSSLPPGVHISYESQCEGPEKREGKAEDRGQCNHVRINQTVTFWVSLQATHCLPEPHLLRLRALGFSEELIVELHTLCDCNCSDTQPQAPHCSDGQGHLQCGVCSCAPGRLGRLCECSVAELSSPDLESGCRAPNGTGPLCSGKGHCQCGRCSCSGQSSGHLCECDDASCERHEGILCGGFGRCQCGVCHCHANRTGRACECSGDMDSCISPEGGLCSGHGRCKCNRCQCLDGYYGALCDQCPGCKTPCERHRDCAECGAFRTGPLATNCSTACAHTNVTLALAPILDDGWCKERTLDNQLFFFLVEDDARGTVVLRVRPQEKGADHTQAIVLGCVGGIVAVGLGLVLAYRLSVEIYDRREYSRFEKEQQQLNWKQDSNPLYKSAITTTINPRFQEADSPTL
SMILES,EC50 [2] [nM],EC50 [3] [nM],further results
"CC[C@@H](Nc1cc(F)c(C(=O)N[C@@H](Cc2ccc(-c3cc4ccncc4n(C)c3=O)c3ncccc23)C(=O)O)c(F)c1)C(F)(F)F [Example 110, (S)-2-(2,6-difluoro-4-(((R)-1,1,1-trifluorobutan-2-yl)amino)benzamido)-3-(8-(1-methyl-2-oxo-1,2-dihydro-1,7-naphthyridin-3-yl)quinolin-5-yl)propanoic acid]",,,EC50 [1]: 0.3 nM
Cc1cc2c(=O)n(-c3ccc(C[C@H](NC(=O)c4c(C)cc(N5CCOC[C@@H]5C(F)(F)F)cc4F)C(=O)O)c4cccnc34)c(=O)n(C)c2cn1 [Example 425],0.185,,
Cn1c(=O)c(-c2ccc(C[C@H](NC(=O)c3c(F)cc(N4CCOC[C@H]4C(F)(F)F)cc3F)C(=O)O)c3cccnc23)cc2cnccc21 [Example 192],,1.4,
"CC[C@@H](Nc1cc(C)c(C(=O)N[C@@H](Cc2ccc(-c3c(C(F)(F)F)cc(C)n(C)c3=O)c3ncccc23)C(=O)O)c(F)c1)C(F)(F)F [Example 142, (S)-3-(8-(1,6-dimethyl-2-oxo-4-(trifluoromethyl)-1,2-dihydropyridin-3-yl)quinolin-5-yl)-2-(2-fluoro-6-methyl-4-(((R)-1,1,1-trifluorobutan-2-yl)amino)benzamido)propanoic acid]",,,EC50 [1]: 0.2 nM
"N#Cc1ccc(-c2ccc(C[C@H](NC(=O)c3c(Cl)cccc3Cl)C(=O)O)c3cc(F)cnc23)c(Cl)c1 [Example 30, (S)-3-(8-(2-chloro-4-cyanophenyl)-3-fluoroquinolin-5-yl)-2-(2,6-dichlorobenzamido)propanoic acid]",,,EC50 [1]: 16.9 nM
"N#Cc1ccc(-c2ccc(C[C@H](NC(=O)c3c(F)cccc3Cl)C(=O)O)c3cccnc23)c(Cl)c1 [Example 2, (S)-3-(8-(2-chloro-4-cyanophenyl)quinolin-5-yl)-2-(2-chloro-6-fluorobenzamido)propanoic acid]",,,EC50 [1]: 31.1 nM
"CC[C@@H](Nc1cc(F)c(C(=O)N[C@@H](Cc2ccc(-c3c(C(F)(F)F)c4cc(N(C)C)ccc4n(C)c3=O)c3ncccc23)C(=O)O)c(F)c1)C(F)(F)F (atropisomer, axis not shown) [Example 302]",,9.4,
"N#Cc1ccc(-c2ccc(C[C@H](NC(=O)c3c(F)cc(NC(C(F)(F)F)C(F)(F)F)cc3F)C(=O)O)c3cccnc23)c(Cl)c1 [Example 88, (S)-3-(8-(2-chloro-4-cyanophenyl)quinolin-5-yl)-2-(2,6-difluoro-4-((1,1,1,3,3,3-hexafluoropropan-2-yl)amino)benzamido)propanoic acid]",,,EC50 [1]: 8.2 nM
Cc1cc(N2CCOC[C@@H]2C(F)(F)F)cc(F)c1C(=O)N[C@@H](Cc1ccc(-c2nc(C)c(C)c(C)n2)c2ncccc12)C(=O)O [Example 443],0.714,,
Cc1cc(N2CCOC3(CC3)C2)cc(F)c1C(=O)N[C@@H](Cc1ccc(-c2c(C(F)(F)F)cc(C)n(C)c2=O)c2ncccc12)C(=O)O [Example 466],0.581,,
O=C(N[C@H](C(=O)O)[C@@H](O)c1ccc(-c2c(Cl)cc(F)cc2Cl)c2ncccc12)c1c(F)cccc1F [Example 279],,82.4,
Cc1cc(N2CCOC[C@@H]2C(F)(F)F)cc(F)c1C(=O)N[C@@H](Cc1ccc(-c2ccc(C)n(C)c2=O)c2ncccc12)C(=O)O [Example 444],0.161,,
"CCOCc1cc(OC)c(-c2ccc(C[C@H](NC(=O)c3c(F)cccc3F)C(=O)O)c3cc(C#N)cnc23)c(OC)c1 [Example 36, (S)-3-(3-cyano-8-(4-(ethoxymethyl)-2,6-dimethoxyphenyl)quinolin-5-yl)-2-(2,6-difluorobenzamido)propanoic acid]",,,EC50 [1]: 21 nM
CC[C@@H](Nc1cc(C)c(C(=O)N[C@@H](Cc2ccc(-c3c(C)nc(C)n(C)c3=O)c3ncccc23)C(=O)O)c(F)c1)C(F)(F)F [Example 442],0.227,,
CCCN(c1cc(F)c(C(=O)N[C@@H](Cc2ccc(-c3c(C(F)(F)F)cc(C)n(C)c3=O)c3ncccc23)C(=O)O)c(F)c1)[C@H](CC)C(F)(F)F [Example 339],,0.6,
Cc1cc(N2CCOC[C@@H]2C(F)(F)F)cc(F)c1C(=O)N[C@@H](Cc1ccc(-n2c(=O)c3ccncc3n(C)c2=O)c2ncc(F)cc12)C(=O)O [Example 426],0.096,,
CN1CCc2nc(-c3ccc(C[C@H](NC(=O)c4c(F)cc(N5CCOC[C@@H]5C(F)(F)F)cc4F)C(=O)O)c4cccnc34)ncc2C1 [Example 312],,12.5,
"Cc1cc(C(F)(F)F)c(-c2ccc(C[C@H](NC(=O)c3c(F)cc(N4CCCC[C@@H]4C(F)(F)F)cc3F)C(=O)O)c3cccnc23)c(=O)n1C (atropisomer, axis not shown) [Example 344]",,0.8,
N#Cc1ccc(-c2ccc(C[C@H](NC(=O)c3c(F)cc(N[C@H](c4cccc(F)c4)C(F)(F)F)cc3F)C(=O)O)c3cccnc23)c(Cl)c1 [Example 334],,24.2,
"CC[C@@H](Nc1cc(F)c(C(=O)N[C@@H](Cc2ccc(-c3c(C)c4cc(F)ccc4n(C)c3=O)c3ncccc23)C(=O)O)c(F)c1)C(F)(F)F (atropisomer, axis not shown) [Example 185]",,1,
Cc1cc(C(F)(F)F)c(-c2ccc(C[C@H](NC(=O)c3c(F)cc(N4C[C@H]5C[C@@H]4CO5)cc3F)C(=O)O)c3cccnc23)c(=O)n1C [Example 480],0.297,,
CC[C@@H](N(c1cc(F)c(C(=O)N[C@@H](Cc2ccc(-c3c(C(F)(F)F)cc(C)n(C)c3=O)c3ncccc23)C(=O)O)c(F)c1)C1CC1)C(F)(F)F [Example 172],,0.5,
N#Cc1cc(Cl)c(-c2ccc(C[C@H](NC(=O)c3c(F)cc(CS(=O)(=O)c4ccccc4)cc3F)C(=O)O)c3cccnc23)c(Cl)c1 [Example 293],,6.9,

# More lines, main results first:
EC50 [2] [nM],EC50 [3] [nM],SMILES,further results
,0.2,Cn1c(=O)c(-c2ccc(C[C@H](NC(=O)c3c(F)cc(NS(=O)(=O)C(F)F)cc3F)C(=O)O)c3cccnc23)cc2ccccc21 [Example 153],
0.1,,"Cc1cc(N2CCOC[C@@H]2C(F)(F)F)cc(F)c1C(=O)N[C@@H](Cc1ccc(-n2c(=O)c3nccnc3n(C)c2=O)c2ncccc12)C(=O)O [Example 404, (S)-2-(2-fluoro-6-methyl-4-((R)-3-(trifluoromethyl)morpholino)benzamido)-3-(8-(1-methyl-2,4-dioxo-1,4-dihydropteridin-3(2H)-yl)quinolin-5-yl)propanoic acid]",
0.103,,Cc1cc(N2CCOC[C@@H]2C(F)(F)F)cc(F)c1C(=O)N[C@@H](Cc1ccc(-n2c(=O)c3cnccc3n(C)c2=O)c2ncccc12)C(=O)O [Example 434],
0.208,,Cc1cc(N2CCOC[C@@H]2C(F)(F)F)cc(F)c1C(=O)N[C@@H](Cc1ccc(-c2c(C)c(Cl)cn(C)c2=O)c2ncccc12)C(=O)O [Example 451],
,2.3,"CC[C@@H](Nc1cc(F)c(C(=O)N[C@@H](Cc2ccc(-c3c(C)n(C)c(=O)n(C)c3=O)c3ncccc23)C(=O)O)c(F)c1)C(F)(F)F (atropisomer, axis not shown) [Example 234]",
,6.5,CC[C@@H](Nc1cc(F)c(C(=O)N[C@@H](Cc2ccc(-c3nc(C)ccc3C(F)(F)F)c3ncccc23)C(=O)O)c(F)c1)C(F)(F)F [Example 289],
,25.1,CCOCc1cc(OC)c(-c2ccc(C[C@H](NC(=O)c3c(F)cc4[nH]c(Cc5ccccc5)cc4c3F)C(=O)O)c3cccnc23)c(OC)c1 [Example 335],
0.524,,Cc1cc(-c2nccn2CC(F)(F)F)cc(F)c1C(=O)N[C@@H](Cc1ccc(-c2c(C(F)(F)F)cc(C)n(C)c2=O)c2ncccc12)C(=O)O [Example 435],
